The subject of experiment [1] is mitogenesis induced by fibroblast growth factor-1 (FGF-1) in Balb/c 3T3 fibroblasts. Description: Inhibition of FGF-1-induced mitogenesis in quiescent Balb/c 3T3 fibroblasts. The format is cell-based. The note with it: quiescent Balb/c 3T3 cultures; potassium salts, calcium salt for 2-acetoxy-5-hydroxybenzene sulfonate. The procedure: The evaluated compounds were used in the form of potassium salt, except in the first case which used calcium salt. The experiments were carried out as described in Fernández-Tornero C et al. J Biol Chem, 2003.

In experiment [2] the test system is subcutaneous gliomas from implanted rat glioma C6 cells. Description: Progression of established subcutaneous C6 gliomas in rats. The format is in vivo. Conditions: 100 mg/kg/day i.p. for 10 days. The procedure:
Rat C6 glioma cells were cultured as previously described (Cuevas P et al. Neurol Res, 2005). The C6 cells cultured to confluence in 75 cm^2 flasks were removed and implanted under the abdominal skin in anesthetized rats. The existence of a tumor in the implantation area was observed five days after the implantation of the tumor cells. Only the rats in which the existence of a tumor was observed were randomly assigned to be treated with daily intraperitoneal injections of 2,5-dihydroxybenzene sulfonate (DHBS; 100 mg/kg/day), 2,5-diacetoxybenzene sulfonate (DABS; 100 mg/kg/day) or the carrier (0.9% NaCl). After 10 days of treatment, the subcutaneous gliomas were removed and their volume was calculated according to the formula V=4/3π·(L/2)·(A/2)^2 (in mm^3) where L is the larger diameter and A is the smaller diameter, both expressed in mm.

Experiment [3] concerns the target fibroblast growth factor-1 (FGF-1) (Homo sapiens, UniProt P05230). Description: Crystal diffraction of co-crystal complexes with FGF-1. The format is binding. Conditions: electron density contoured at 1σ; for acetoxyl groups retained when bound to FGF-1: co-crystal; for binding site on FGF-1 in the co-crystal: reference lysine 132. The procedure:
Based on the crystal diffraction of the FGF-1:2-acetoxy-5-hydroxybenzene sulfonic acid, FGF-1:5-acetoxy-2-hydroxybenzene sulfonic acid and FGF-1:2,5-diacetoxybenzene sulfonic acid complexes, the structures of the complexes were calculated and represented. FIGS. 13, 14 and 15, which show the surface of the dyed protein according to its electrostatic potential (light grey, negative charge; dark grey, positive charge; white, regions with no charge), show the manner in which 2-acetoxy-5-hydroxybenzene sulfonic acid, 5-acetoxy-2-hydroxybenzene sulfonic acid and 2,5-diacetoxybenzene sulfonic acid interact, respectively, with FGF-1.

Experiment [4] relates to rat glioma C6 cells. Description: Rat glioma C6 cell proliferation, crystal violet staining. The format is cell-based. The note with it: 48 h; for C6 cell proliferation (percentage of control absorbance at 595 nm): 500 μM, p<0.001 vs control (FIG. 12). The procedure:
The cell line used was rat glioma C6 cells. The cells were cultured as previously described (Cuevas P et al. Neurol Res, 2005). The cells were cultured as adherent cells in Dulbecco's modified Eagle's medium, supplemented with 7.5% (v/v) of fetal bovine serum, 10 μg/ml of streptomycin and 10 units/ml of penicillin. The tumor cells were seeded in 24-well plates at a density of 10,000 cells/well, and were incubated at 37° C. in a humidified chamber with 5% CO2. Once adhered, the cells were treated or not (controls) with 2,5-dihydroxybenzoate at 100, 200, 500 or 1000 μM and they were allowed to proliferate for 48 h. After this time the glioma cell proliferation was evaluated by means of staining the fixed cells with crystal violet. The number of cells is proportional to the amount of retained dye, which was spectrophotometrically determined by measuring the absorbance at 595 nm once the dye was extracted from the cells.
The cell line used was the C6 cell line and the experiment was carried out as described in Example 2. Once adhered, the cells were treated or not (controls) with increasing concentrations of 2,5-DHC (10, 25, 50 and 100 μM) and they were allowed to proliferate for 48 h. After this time the glioma cell proliferation was evaluated by means of staining the fixed cells with crystal violet. The number of cells is proportional to the amount of retained dye, which was determined spectrophotometrically by measuring absorbance at 595 nm once the dye was extracted from the cells.
The cell line used was the C6 cell line and the experiment was carried out as described in examples 2 and 3. Once adhered, the cells were treated or not (controls) with (5A-2HBS) (500 μM) or (2A-5HBS) (500 μM) and they were allowed to proliferate for 48 h. After this time the glioma cell proliferation was evaluated by means of staining the fixed cells with crystal violet. The number of cells is proportional to the amount of retained dye, which was determined spectrophotometrically by measuring the absorbance at 595 nm once the dye was extracted from the cells.

Experiment [5] relates to bFGF-induced fibrosis in rat adipose tissue. Description: bFGF-induced fibrosis around subcutaneously implanted gelatin sponges. The note with it: 100 μM in sponge with bFGF and heparin, 7 days, vs bFGF alone. The format is in vivo, Sprague-Dawley rats. The procedure: Sterile gelatin sponges (1 mm^3; Curaspon Dental, Clinimed Holding, Zwanenburg, The Netherlands) were subcutaneously implanted in the dorsal region of the neck in Sprague-Dawley rats after the induction of intraperitoneal anesthesia. The animals were split into two groups: group A, the sponges were moistened with 200 μl of saline solution which contained 25 μg/ml of heparin and 10 μg/ml of basic FGF (bFGF); group B, the sponges were moistened in the same solution as in group A, but which solution farther contained 2,5-dihydroxybenzoate (100 μM). After 7 days, the sponges and the surrounding subcutaneous fat were removed and histologically analyzed.

Experiment [6] concerns subcutaneous tumors from human prostate cancer PC-3 cells. Description: Subcutaneous PC-3 prostate cancer cell implantation model in athymic mice. The format is in vivo, athymic mice (Nu/Nu). Conditions: 100 mg/kg daily i.p. for 15 days, vs carrier. The procedure: 5×10^6 human prostate cancer PC-3 cells were subcutaneously injected in male athymic mice (Nu/Nu) of 6-8 weeks of age and weighing 20-26 g. Ten days after the implantation of the tumor cells, the mice were randomly split into two groups: one of them received a daily injection of potassium 2,5-diacetoxybenzene sulfonate (DABS) by intraperitoneal route at a dose of 100 mg/kg dissolved in saline (0.9% NaCl) whereas the other group received a daily injection of carrier (saline). The treatments were administered for 15 days. The volumes of the tumors induced by the implantation of PC-3 cells were measured through the skin on alternating days using a Vernier caliper. The volume was calculated using the formula V=(D×2d)/2, where D is the larger diameter in mm, d is the smaller diameter in mm and V is the volume in mm3. At the end of treatment, the mice were sacrificed and the tumors were weighed.

The test system of experiment [7] is tumor cells of subcutaneous gliomas. Description: Apoptosis in sections of established subcutaneous gliomas (hematoxylin and eosin). Conditions: 100 mg/kg/day i.p. for 10 days, vs carrier (very scarce). It counts as in vivo, rat. The source says:
Tumor cells elude the programmed cell death process or apoptosis that normal cells experience. Apoptosis induction in tumor cells is one way to confront the development of a tumor. To evaluate the effect of potassium 2,5-dihydroxybenzene sulfonate […] on tumor cell apoptosis, 6 μm thick sections of the subcutaneous gliomas described in example 4 were made. The sections were stained with hematoxylin and eosin and observed at a magnification of 313 times using immersion oil. In these conditions, cell apoptosis is shown by the existence of apoptotic bodies appearing as strongly chromogenic granules in the cell nucleus which is frequently fragmented.

For experiment [8], the system named is human prostate cancer PC-3 cells. Description: Human tumor cell proliferation (XTT), PC-3. It counts as cell-based. The note with it: 1-200 μM, 96 h. The procedure: (§1) The cell lines used were the human prostate cancer PC-3 cells and human lung cancer A549 cells. 2000 cells were seeded per well in 96-well plates and they were allowed to adhere overnight. Then the cells were treated or not (controls) with potassium 2,5-diacetoxybenzene sulfonate (DABS) (1-200 μM) and they were allowed to proliferate for 96 h. After this time, the PC-3 and A549 cell proliferation was evaluated by determining the final number of cells by means of the viability method of yellow tetrazolium salt (XTT). The data were expressed as a percentage of the control (without treatment).
A general note: Formazan colour is commonly taken as a measure of viable cells.

The subject of experiment [9] is human lung cancer A549 cells. Description: Human tumor cell proliferation (XTT), A549. It counts as cell-based. Conditions: 1-200 μM, 96 h. The procedure:
as §1

fibroblast growth factor-1 (FGF-1), sequence (P05230 whole entry, species assumed): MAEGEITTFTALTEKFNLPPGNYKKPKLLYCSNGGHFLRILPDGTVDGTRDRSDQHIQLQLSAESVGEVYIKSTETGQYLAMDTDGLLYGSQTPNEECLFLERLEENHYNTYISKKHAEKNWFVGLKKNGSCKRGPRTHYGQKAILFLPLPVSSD

`O=S(=O)([O-])c1cc(O)ccc1O.[K+]` [DHBS, potassium 2,5-dihydroxybenzene sulfonate, reference compound]: the “inhibition of mitogenesis induced by FGF-1” value (from here on “inhibition … by FGF-1”) in [1] is given as “inhibition of the mitogenesis”. The “average size (volume) of subcutaneous gliomas” value in experiment [2] (treatment from day 5 after implantation, vs carrier) is given as “less than that of the rats treated with carrier”.

Turning to `CC(=O)Oc1ccc(O)c(S(=O)(=O)[O-])c1.[K+]` [5A-2HBS, potassium 5-acetoxy-2-hydroxybenzene sulfonate], in experiment [3], the “acetoxyl groups retained when bound to FGF-1” value was “conserve the acetoxyl groups” and the “binding site on FGF-1 in the co-crystal” value is reported as “occupy a site that is very close to the one that has been described occupied by 2,5-dihydroxybenzene sulfonic acid”. In experiment [1], the “inhibition … by FGF-1” value is “inhibition of mitogenesis induced by FGF-1”. Moreover, the “C6 cell proliferation (percentage of control absorbance at 595 nm)” value in experiment [4] is listed as “caused the inhibition of rat glioma cell proliferation”.

Regarding `O=C([O-])c1cc(O)ccc1O.[K+]` [2,5-dihydroxybenzoate, potassium 2,5-dihydroxybenzoate], the “bFGF-induced fibrosis (fibroblasts in septa of connective tissue of adipose tissue)” value in [5] was “reduces bFGF-induced fibrosis”. For the same molecule, the “C6 cell proliferation (absorbance at 595 nm)” value in experiment [4] (100, 200, 500 and 1000 μM) was “inhibited rat glioma C6 cell proliferation in a concentration-dependent manner”. In addition, the “statistical significance of inhibition of C6 cell proliferation vs control” value in experiment [4] (500 and 1000 μM, p<0.001 (FIG. 2)) is listed as “statistically significant”.

For `CC(=O)Oc1ccc(O)cc1S(=O)(=O)[O-].[K+]` [2A-5HBS, potassium 2-acetoxy-5-hydroxybenzene sulfonate], in experiment [3], the “acetoxyl groups retained when bound to FGF-1” value is on record as “conserve the acetoxyl groups” and the “binding site on FGF-1 in the co-crystal” value is given as “occupy a site that is very close to the one that has been described occupied by 2,5-dihydroxybenzene sulfonic acid”. In addition, the “inhibition … by FGF-1” value in [1] is on record as “inhibition of mitogenesis induced by FGF-1”. For the same molecule, the “C6 cell proliferation (percentage of control absorbance at 595 nm)” value in experiment [4] is reported as “caused the inhibition of rat glioma cell proliferation”.

With `O=C(O)C=Cc1cc(O)ccc1O` [2,5-DHC, 3-(2,5-dihydroxyphenyl)-2-propenoic acid], the results for the “C6 cell proliferation relative to control” value in [4] (50 μM) and in experiment [4] (100 μM) were “less than half” and “one tenth”, respectively.

For the molecule `CC(=O)Oc1ccc(OC(C)=O)c(S(=O)(=O)[O-])c1.[K+]` [DABS, potassium 2,5-diacetoxybenzene sulfonate], in experiment [3], the “acetoxyl groups retained when bound to FGF-1” value is recorded as “conserve the acetoxyl groups” and the “binding site on FGF-1 in the co-crystal” value was “occupy a site that is very close to the one that has been described occupied by 2,5-dihydroxybenzene sulfonic acid”. Besides, the “tumor growth (tumor volume through the skin)” value in experiment [6] (start 10 days after implantation) was “significantly reduced”. The “weight of the extracted tumor when treatment ended” value in [6] (p<0.05) is “significant reduction of the weight”. In experiment [1], the “inhibition … by FGF-1” value is “inhibition of mitogenesis induced by FGF-1”. Besides, in experiment [7], the “tumor cells in apoptosis in glioma sections” value is listed as “a large number of tumor cells in apoptosis”. In addition, the “PC-3 cell proliferation (percentage of control)” value in experiment [8] is recorded as “significant inhibition”. Also, the “A549 cell proliferation (percentage of control)” value in experiment [9] is “significant inhibition”. Also, the “rats tumor-free when treatment ended” value in experiment [2] (all rats had established tumors before treatment) stood at 4 rats. In [2] (p<0.05), the “probability of being tumor-free (χ2 test), DABS group vs DHBS group” value is given as “greater probability of being tumor-free”.
